Columns and labels:
[1] = system: Staphylococcus aureus NRRL B313; experiment: In vitro MIC, standard agar-dilution assay; format: cell-based; conditions: M43A phosphate salt, vancomycin free base
[2] = system: Staphylococcus aureus V41; experiment: In vitro MIC, standard agar-dilution assay; format: cell-based; conditions: M43A phosphate salt, vancomycin free base
[3] = system: Staphylococcus aureus X400; experiment: In vitro MIC, standard agar-dilution assay; format: cell-based; conditions: M43A phosphate salt, vancomycin free base
[4] = system: Streptococcus pyogenes C203; experiment: In vitro MIC, standard agar-dilution assay; format: cell-based; conditions: M43A phosphate salt, vancomycin free base
[5] = system: Haemophilus influenzae C.L.; experiment: In vitro MIC, standard agar-dilution assay; format: cell-based; conditions: M43A phosphate salt, vancomycin free base
[6] = system: Haemophilus influenzae 76; experiment: In vitro MIC, standard agar-dilution assay; format: cell-based; conditions: M43A phosphate salt, vancomycin free base
[7] = system: Escherichia coli N10; experiment: In vitro MIC, standard agar-dilution assay; format: cell-based; conditions: M43A phosphate salt, vancomycin free base
[8] = system: Escherichia coli EC14; experiment: In vitro MIC, standard agar-dilution assay; format: cell-based; conditions: M43A phosphate salt, vancomycin free base
[9] = system: Escherichia coli TEM; experiment: In vitro MIC, standard agar-dilution assay; format: cell-based; conditions: M43A phosphate salt, vancomycin free base
[10] = system: Klebsiella pneumoniae X26; experiment: In vitro MIC, standard agar-dilution assay; format: cell-based; conditions: M43A phosphate salt, vancomycin free base
[11] = system: Klebsiella pneumoniae X68; experiment: In vitro MIC, standard agar-dilution assay; format: cell-based; conditions: M43A phosphate salt, vancomycin free base
[12] = system: Klebsiella pneumoniae KAE; experiment: In vitro MIC, standard agar-dilution assay; format: cell-based; conditions: M43A phosphate salt, vancomycin free base
[13] = system: Bacteroides corrodens 1874; experiment: Susceptibility of anaerobic isolates, agar-dilution MIC; format: cell-based; conditions: read after 24 hrs incubation
Protocol: (§1) . | ^a MIC's were determined by the agardilution method; endpoints were
(§2) read after 24hrs. incubation.

[14] = system: Bacteroides fragilis 111; experiment: as above; format: cell-based; conditions: read after 24 hrs incubation
Protocol: as §1, §2

[15] = system: Bacteroides fragilis 1877; experiment: as above; format: cell-based; conditions: read after 24 hrs incubation
Protocol: as §1, §2

[16] = system: Bacteroides fragilis 1936B; experiment: as above; format: cell-based; conditions: read after 24 hrs incubation
Protocol: as §1, §2

[17] = system: Bacteroides melaninogenicus 1856/28; experiment: as above; format: cell-based; conditions: read after 24 hrs incubation
Protocol: as §1, §2

[18] = system: Bacteroides melaninogenicus 2736; experiment: as above; format: cell-based; conditions: read after 24 hrs incubation
Protocol: as §1, §2

[19] = system: Bacteroides thetaiotaomicron 1438; experiment: as above; format: cell-based; conditions: read after 24 hrs incubation
Protocol: as §1, §2

[20] = system: Bacteroides vulgatis 1211; experiment: as above; format: cell-based; conditions: read after 24 hrs incubation
Protocol: as §1, §2

[21] = system: Clostridium difficile 2994; experiment: as above; format: cell-based; conditions: read after 24 hrs incubation
Protocol: as §1, §2

[22] = system: Clostridium septicum 1128; experiment: as above; format: cell-based; conditions: read after 24 hrs incubation
Protocol: as §1, §2

[23] = system: Eubacterium aerofaciens 1235; experiment: as above; format: cell-based; conditions: read after 24 hrs incubation
Protocol: as §1, §2

[24] = system: Fusobacterium necrophorum 6054A; experiment: as above; format: cell-based; conditions: read after 24 hrs incubation
Protocol: as §1, §2

[25] = system: Fusobacterium symbiosum 1470; experiment: as above; format: cell-based; conditions: read after 24 hrs incubation
Protocol: as §1, §2

[26] = system: Peptococcus asaccharolyticus 1302; experiment: as above; format: cell-based; conditions: read after 24 hrs incubation
Protocol: as §1, §2

[27] = system: Peptococcus prevoti 1281; experiment: as above; format: cell-based; conditions: read after 24 hrs incubation
Protocol: as §1, §2

[28] = system: Peptostreptococcus anaerobius 1428; experiment: as above; format: cell-based; conditions: read after 24 hrs incubation
Protocol: as §1, §2

[29] = system: Peptostreptococcus intermedius 1264; experiment: as above; format: cell-based; conditions: read after 24 hrs incubation
Protocol: as §1, §2

[30] = system: Propionibacterium acnes 79; experiment: as above; format: cell-based; conditions: read after 24 hrs incubation
Protocol: as §1, §2

[31] = system: Clostridium perfringens 81; format: cell-based; conditions: agar dilution, read after 24 hrs incubation
[32] = system: Staphylococcus aureus; experiment: Experimental bacterial infection in mice, ED50; format: in vivo; conditions: subcutaneous, two doses, dose protecting 50% of animals
[33] = system: Streptococcus pyogenes; experiment: Experimental bacterial infection in mice, ED50; format: in vivo; conditions: subcutaneous, two doses, dose protecting 50% of animals
[34] = system: Streptococcus pneumoniae; experiment: Experimental bacterial infection in mice, ED50; format: in vivo; conditions: subcutaneous, two doses, dose protecting 50% of animals
[35] = system: Streptococcus faecium ATCC 9790; conditions: agar dilution, M43A phosphate salt, vancomycin free base
[36] = system: Streptococcus sp. group D 9960; conditions: agar dilution, M43A phosphate salt, vancomycin free base

CN[C@H](CC(C)C)C(=O)N[C@H]1C(=O)N[C@@H](CC(N)=O)C(=O)N[C@H]2C(=O)N[C@H]3C(=O)N[C@H](C(=O)N[C@H](C(=O)O)c4cc(O)cc(O)c4-c4cc3ccc4O)[C@H](O)c3ccc(c(Cl)c3)Oc3cc2cc(c3O[C@@H]2O[C@H](CO)[C@@H](O)[C@H](O)[C@H]2O[C@H]2C[C@](C)(N)[C@H](O)[C@H](C)O2)Oc2ccc(cc2Cl)[C@H]1O [Vancomycin]
16 µg/mL: MIC [19] | MIC [20] | MIC [23]
128 µg/mL: MIC [5]
64 µg/mL: MIC [14]
> 128 µg/mL: MIC [7] | MIC [8] | MIC [9] | MIC [10] | MIC [11] | MIC [12] | MIC [17]
1.62 mg/kg/2: E50 [32]
2 µg/mL: MIC [21] | MIC [24] | MIC [25] | MIC [26] | MIC [27] | MIC [28] | MIC [30]
8 µg/mL: MIC [18]
4 µg/mL: MIC [22] | MIC [29] | MIC [36]
32 µg/mL: MIC [6] | MIC [13] | MIC [15] | MIC [16]
1.2 mg/kg/2: E50 [33]
1 µg/mL: MIC [1] | MIC [2] | MIC [3] | MIC [4] | MIC [31] | MIC [35]
1.47 mg/kg/2: E50 [34]

From US4548925A, “Antibiotic M43A, pharmaceutical composition and method of use” (Eli Lilly and Company, priority 1984, dated 1985)
